# Assay results as given in PMC6156138, “Combination of a Latency-Reversing Agent With a Smac Mimetic Minimizes Secondary HIV-1 Infection in vitro” (Frontiers in Microbiology, 2018).
# Where two headings read alike, the source gives them in different places.
# Legend:
# Format in all cases: cell-based
# [1] = test system: primary CD4+ T-cells from HIV-1-infected patients; assay: HIV-1 reactivation in primary CD4+ T-cells from HIV-1 patients (HIV-1 mRNA); settings: primary CD4+ T-cells from HIV-1-infected patients under cART, 24 h; PEP005 5 nM, birinapant 50 nM
# Text: Peripheral blood samples were collected from HIV-1-infected patients who had been receiving combination antiretroviral therapy (cART) for at least 6 years. All subjects maintained lower viral load (<20 copies/ml) (except for occasional blips) during therapy. CD4^+ T-cell counts in peripheral blood samples ranged from 464–807 cells/mm^3 (average 601 cells/mm^3), and plasma viral loads were <41.3 copies/ml as measured by qPCR (Roche COBAS AmpliPrep/COBAS TaqMan HIV-1 Test version 2.0) at the time of study enrollment. Written informed consent was obtained from all the subjects. […] The total RNA was extracted, cDNA was synthesized, and quantitative real-time PCR analyses for studying the expression of intracellular HIV-1 RNA were carried out as shown above. The HIV RNA copies were calculated using a standard curve obtained from serially diluted HIV-1 plasmid, the normalized values [HIV RNA copies/input RNA (ng)] with a drug were compared with that without a drug, and the relative increase in HIV-1 RNA levels in the presence of a drug was determined.
# FIGURE 5 (A) Changes in the HIV-1 mRNA expression on primary CD4^+ T-cells from HIV-1-infected patients in the presence of PEP005 and/or birinapant. […] Statistical significance was determined using Mann-Whitney U test, where P-value < 0.05 was considered to be significant.
# [2] = test system: latent HIV-1-infected ACH-2 cells; assay: HIV reactivation from latent cells: supernatant p24 antigen; settings: for viral production (supernatant p24 antigen levels): day 2, single drug (Figure 1A)
# Method: The reactivation of HIV-1 from latently infected cells was determined by the measurement of supernatant p24 antigen and intracellular HIV-1 RNA levels. ACH-2 cells or U1 cells (5 × 10^5 cells/mL) were placed in 96-well plates, and then the cells were incubated with different concentrations of drugs for 24 h to extract RNA and for 48 h to collect the supernatant. The increase in supernatant p24 antigen levels was measured using […] G1200 (Fujirebio, Tokyo, Japan). The total RNA was extracted using an RNeasy Mini Kit (Qiagen, Hilden, Germany), following the manufacturer’s protocols. The cDNA was synthesized using PrimeScript RT Master Mix (Takara Bio, Shiga, Japan), and quantitative real-time PCR analyses for the intracellular HIV-1 RNA were carried out with PowerUp^TM SYBR Green Master Mix (Applied Biosystems, Foster City, CA, United States). The oligonucleotide primers used were as follows: 5′-[…]-3′ (forward) and 5′-[…]-3′ (reverse) for HIV-RNA detection; 5′-[…]-3′ (forward) and 5′-[…]-3′ (reverse) for β-actin. The HIV-RNA expressions were normalized with that of β-actin, which was indicated as the relative quantity, and the increase in HIV-1 RNA levels in the presence of a drug was compared with that without a drug.
# FIGURE 1 (A,B) The increase in viral production from ACH-2 cells (A) and U1 cells (B) was examined by supernatant p24 antigen levels on day 2. (C,D) Changes in the intracellular HIV-1 mRNA levels due to treatment with these drugs in ACH-2 cells (C) and U1 cells (D) after 24 h of incubation.
# FIGURE 2 (A) Effect of birinapant when combined with TNF-α. The supernatant p24 levels with birinapant (1∼100 nM) in ACH-2 cell culture on day 2 are shown in white bars, and p24 values with birinapant when combined with TNF-α (10 ng/ml) are shown in black bars. (B) HIV-1 production from ACH-2 cells when reactivated by PEP005 (0.05∼50 nM) for 24 h. (C) Changes in the living cell numbers in the presence of drug(s) on days 1, 3, and 5.
# [3] = Toxicity on PHA-stimulated PBMCs from healthy donor (WST-8 assay); settings: human
# Method: Table S1. CC50 values on PHA-stimulated PBMCs from healthy donor
# PBMCs (2 x 10^6 cells/ml) were treated with birinapant or PEP005 and cultured for 3days. Cell viability was
# Table S2. Toxicity of PEP005 and birinapant in combination
# Agent (concentration) % replication
# PEP005 (1 µM) + birinapant (1 µM) 65.5 %
# PBMCs (2 x 10^6 cells/ml) were treated with birinapant (10 nM - 10 µM) and/or PEP005 (10 nM - 100 µM)
# and cultured for 3 days. Cell viability was measured by WST-8 assay.
# [4] = Cytotoxicity assay (Cytotoxicity LDH Assay Kit); settings: human
# Method: To determine the cytotoxicity induced by LRAs and its related compounds, cells (5 × 10^5 cells/mL) were cultured in the presence or absence of LRA. After 24 h, cytotoxicity assays were performed using a Cytotoxicity LDH Assay Kit (Dojindo, Kumamoto, Japan) according to the manufacturer’s instructions. The number of living cells with the drug was measured and compared with those without the drug, and data are shown as percentage (%) of control.
# [5] = A3.01 cells, read-out: CC50 ± SD against A3.01
# [6] = ACH-2 cells, read-out: CC50 ± SD against ACH-2
# [7] = HL-60 cells, read-out: CC50 ± SD against HL-60
# [8] = J1.1 cells, read-out: CC50 ± SD against J1.1
# [9] = Jurkat cells, read-out: CC50 ± SD against Jurkat
# [10] = OM10.1 cells, read-out: CC50 ± SD against OM10.1
# [11] = U1 cells, read-out: CC50 ± SD against U1
# [12] = U937 cells, read-out: CC50 ± SD against U937
smiles,measurement,setting,value
"C/C=C(/C)C(=O)O[C@H]1C(C)=C[C@]23C(=O)[C@@H](C=C(CO)[C@@H](O)[C@]12O)[C@H]1[C@@H](C[C@H]3C)C1(C)C [PEP005, ingenol-3-angelate]",HIV-1 mRNA expression,[1],elevated the expression of HIV-1 mRNA
same,supernatant HIV-1 p24 levels,"[2]; ACH-2 cells, after 24 h, PEP005 5 nM and higher (Figure 2B)",reactivated and increased the supernatant HIV-1 p24 levels
same,increase of supernatant HIV-1 p24 levels compared with unstimulated ACH-2 cells,"[2]; ACH-2 cells, day 2 (Figure 1A)",> 100 fold
same,viral production (supernatant p24 antigen levels),[2]; ACH-2 cells,increased viral production
same,CC50 at 3 days,"[3]; PHA-stimulated PBMCs from healthy donor, 3 days, WST-8 assay, read-out: CC50 (µM) ± SD",> 100 µM
same,CC50 at 24 h,[4]; [5],47 ± 9 µM
same,CC50 at 24 h,[4]; [6],19 ± 0.4 µM
same,CC50 at 24 h,[4]; [7],> 100 µM
same,CC50 at 24 h,[4]; [8],44 ± 2 µM
same,CC50 at 24 h,[4]; [9],16 ± 3 µM
same,CC50 at 24 h,[4]; [10],84 ± 6 µM
same,CC50 at 24 h,[4]; [11],> 100 µM
same,CC50 at 24 h,[4]; [12],> 100 µM
CC[C@H](NC(=O)[C@H](C)NC)C(=O)N1C[C@@H](O)C[C@H]1Cc1c(-c2[nH]c3cc(F)ccc3c2C[C@@H]2C[C@H](O)CN2C(=O)[C@H](CC)NC(=O)[C@H](C)NC)[nH]c2cc(F)ccc12 [Birinapant],HIV-1 mRNA expression,[1],failed to change the HIV-1 mRNA expression in most samples
same,decrease of supernatant p24 levels,"[2]; ACH-2 cells reactivated by PEP005 (or TNF-α), simultaneously treated with birinapant 50 nM, 24 h",~40%
same,supernatant p24 antigen levels,"[2]; ACH-2 cells, birinapant 1∼100 nM alone, day 2 (Figure 2A)",failed to affect supernatant p24 antigen levels
same,viral production (supernatant p24 antigen levels),[2]; ACH-2 cells,only had a minor effect on HIV-1 reactivation
same,CC50 at 3 days,[3],10.7 ± 0.2 µM
same,CC50 at 24 h,[4]; [5],0.2 ± 0.08 µM
same,CC50 at 24 h,[4]; [6],> 100 µM
same,CC50 at 24 h,[4]; [7],> 100 µM
same,CC50 at 24 h,[4]; [8],48 ± 0.9 µM
same,CC50 at 24 h,[4]; [9],13 ± 0.1 µM
same,CC50 at 24 h,[4]; [10],53 ± 8 µM
same,CC50 at 24 h,[4]; [11],> 100 µM
same,CC50 at 24 h,[4]; [12],> 100 µM
